According to patent US20210330686A1, “COMPOSITION CONTAINING 2'-FUCOSYLLACTOSE FOR PREVENTING STROKE” (Advanced Protein Technologies Corp., priority 2018, published 2021):

How the values were obtained:
[1] = system: brain injury induced by middle cerebral artery occlusion (MCAO); assay: Behavioral test: spontaneous exercise of stroke-induced animals (MCAO model); type: in vivo, Sprague-Dawley rats
[2] = system: brain injury induced by middle cerebral artery occlusion (MCAO); assay: TTC staining of stroke-induced brain (MCAO model) after oral pre-administration; type: in vivo, Sprague-Dawley rats

With 2′-fucosyllactose [2′-FL] the “exercise amount 2 days after stroke induction (D2)” value ([1]; oral 300 mg/kg for 3 days before MCAO) was “significantly increase”, the “exercise amount 2 days after stroke induction (D2)” value ([1]; oral 400 mg/kg for 3 days before MCAO) was “no statistically significant increase in exercise” and the “total exercise amount 2 days after stroke induction (D2)” value ([1]; oral pre-administration for 3 days, all doses) was “found to increase the total exercise amount”. The “brain damage compared to the control group not administered” value ([2]; experimental group administered with 2'-fucosyllactose) was “significantly suppressed” and the “brain damage suppression (TTC staining)” value ([2]; oral pre-administration 0-7 weeks, 200, 300, 400 mg/kg, before MCAO) was “the longer the 2′-FL pre-administration period and the higher the dose, the better the effect on brain damage suppression”.
